Data from BindingDB's records for doi:10.1111/j.1747-0285.2009.00884.x (Pfizer, 2009).
Several values for one entry are separate records, joined by “and”; a condition that tells them apart may be missing. Equal entries are not always repeated.

What was measured:
[1] = target: T1, Mitogen-activated protein kinase 14 (Homo sapiens, UniProt Q16539); assay: Unactivated p38alpha cascade assay; conditions: pH 7.5; 25 °C
Method: Binding of inhibitors to unactivated p38a that leads to decreasedphosphorylation of p38alpha by MKK6 was determined by measuringthe activated p38alpha activity in the assay mixture with andwithout inhibitors. In a 20-lL reaction mixture containing 50 mMHepes, pH 7.5, 1 mM EGTA, 10 mM MgCl2, 0.01% (w / v) Brij35 and 200 µM DTT, unactivated p38a (2 nM) was preincubatedwith inhibitors at various concentrations for 30 min at roomtemperature. Ten microliters of 1 mM ATP and 1 nM active MKK6were then introduced to initiate p38a activation. The reaction wasrun at room temperature for 15 min. The mixture was thenimmediately diluted 100-fold so that the inhibitor concentrationwas reduced by 2 orders of magnitude and residual inhibitoryeffect was minimized. The reaction product, active p38alpha, wasthen calculated based on its catalytic activity to activate MK2 asdescribed in Active p38a cascade assay section.

[2] = target: T1, Mitogen-activated protein kinase 14; assay: Active p38alpha cascade assay; conditions: pH 7.5; 25 °C
Method: The reaction was run for 15 min atroom temperature. […] Under such

T1 sequence (Q16539 whole entry): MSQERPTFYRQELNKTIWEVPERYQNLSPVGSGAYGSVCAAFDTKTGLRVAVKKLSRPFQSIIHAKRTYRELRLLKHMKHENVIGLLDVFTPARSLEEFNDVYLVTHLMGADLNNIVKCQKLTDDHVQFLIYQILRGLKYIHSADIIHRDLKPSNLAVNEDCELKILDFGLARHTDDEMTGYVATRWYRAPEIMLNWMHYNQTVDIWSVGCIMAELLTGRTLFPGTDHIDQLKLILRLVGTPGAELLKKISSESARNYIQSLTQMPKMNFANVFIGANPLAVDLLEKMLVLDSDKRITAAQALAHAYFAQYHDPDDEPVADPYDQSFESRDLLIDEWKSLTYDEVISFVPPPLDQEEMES

IC50 [1]	IC50 [2]	Structure (SMILES)
62 nM	1470 nM	Cc1cc(C(=O)[n+]2cccc(C(=O)NCc3ccc(-n4nc(C(C)(C)C)cc4NC(=O)Nc4ccccc4)cc3)c2)ccc1C(=O)O [(12b) BIRB796]
1030 nM	2100 nM	O=S1(=O)N=c2ccc3c4c(c5ccccc5c(c24)O1)OS(=O)(=O)N=3 [CP-232880]
110 nM	1.8 nM	Clc1ccc(-c2c[nH]c(-c3cc4ccccc4cn3)n2)cc1 [PF-00215924]
	1900 nM and > 12500 nM	Brc1ccc(-c2c[nH]c(-c3cc4ccccc4cn3)n2)cc1 [PF-00215937]
2300 nM	> 12500 nM	Clc1cccc(-c2c[nH]c(-c3cc4ccccc4cn3)n2)c1 [PF-00240292]
320 nM	2950 nM	Brc1ccc(-c2c[nH]c(-c3cc4ccccc4cn3)n2)cc1 [PF-04764755]
6000 nM	> 12500 nM	NCCC(=O)c1cccc(Oc2cccc(C(=O)CCN)c2)c1 [UK-146015]

The remaining lines, values behind:

Structure (SMILES)	IC50 [1]	IC50 [2]
CC(=O)c1cc(C(=O)NCc2ccc(-n3nc(C(C)(C)C)cc3NC(=O)Nc3cccc4ccccc34)cc2)ccc1C [(5a) BIRB796]	8 nM	933 nM
CC(=O)c1cc(C(=O)NC(O)(NCc2ccc(-n3nc(C(C)(C)C)cc3NC(=O)Nc3cccc4ccccc34)cc2)C2CCCC2)ccc1C (stereo not given) [(5b) BIRB796]	26 nM	1110 nM
Cc1ccc(C(=O)NCc2ccc(-n3nc(C(C)(C)C)cc3NC(=O)Nc3cccc4ccccc34)cc2)cc1C(=O)O [(7a) BIRB796]	11 nM	691 nM
Cc1ccc(C(=O)NC(O)(NCc2ccc(-n3nc(C(C)(C)C)cc3NC(=O)Nc3cccc4ccccc34)cc2)C2CCCC2)cc1C(=O)O (stereo not given) [(7b) BIRB796]	36 nM	1130 nM
Cc1cc(C(=O)NCc2ccc(-n3nc(C(C)(C)C)cc3NC(=O)Nc3cccc4ccccc34)cc2)ccc1C(=O)O [(8a) BIRB796]	11 nM and 25 nM	393 nM and 664 nM
Cc1ccc(C(=O)NC(C)(O)NCc2ccc(-n3nc(C(C)(C)C)cc3NC(=O)Nc3ccccc3)cc2)cc1C(=O)O (stereo not given) [(9a) BIRB796]	6 nM	376 nM
Cc1ccc(C(=O)NC(O)(NC(=O)NCc2ccc(-n3nc(C(C)(C)C)cc3NC(=O)Nc3ccccc3)cc2)C2CCCC2)cc1C(=O)O (stereo not given) [(9b) BIRB796]	22 nM	810 nM
Cc1cc(C(=O)NC(C)(O)NCc2ccc(-n3nc(C(C)(C)C)cc3NC(=O)Nc3ccccc3)cc2)ccc1C(=O)O (stereo not given) [(10a) BIRB796]	7 nM	261 nM
Cc1ccc(C(=O)NC(=O)NCc2ccc(-n3nc(C(C)(C)C)cc3NC(=O)Nc3ccccc3)cc2)cc1C(=O)O [(11a) BIRB796]	11 nM	1080 nM
Cc1ccc(C(=O)[n+]2cccc(C(=O)NCc3ccc(-n4nc(C(C)(C)C)cc4NC(=O)Nc4ccccc4)cc3)c2)cc1C(=O)O [(11b) BIRB796]	35 nM	1220 nM
Cc1cc(C(=O)NC(=O)NCc2ccc(-n3nc(C(C)(C)C)cc3NC(=O)Nc3ccccc3)cc2)ccc1C(=O)O [(12a) BIRB796]	53 nM	1590 nM
